Test results taken from article PMC10088252.

Method: Dose adjustment was allowed according to the severity of toxicity [Supplementary Table 1].
The primary endpoints were safety, ORR and DCR assessed by investigators. […] AEs referred to treatment-emergent adverse events (TEAEs) and TRAEs were assessed by investigators. Serious adverse events (SAEs) referred to AEs meeting at least one of the following criteria: event leading to death; life-threatening event; event requiring hospitalization or extension of hospital stay; event leading to persistent or evident disability or dysfunction; event leading to congenital malformation or birth defect or event which might lead to injury or that need medical treatment to avoid the above mentioned important medical events.

O=C(Nc1ccc(Oc2ccnc3c2CCN3)c(F)c1)c1c[nH]cc(-c2ccc(F)cc2)c1=O
TRAE Hyperhidrosis, grade 3-4 (450 mg QD (n=12)): 0 n (%) | TRAE Hyperlipidaemia, any grade (450 mg QD (n=12)): 0 n (%) | TRAE Hyperlipidaemia, grade 3-4 (450 mg QD (n=12)): 0 n (%) | TRAE Hypertension, any grade (450 mg QD (n=12)): 0 n (%) | TRAE Hypertension, grade 3-4 (450 mg QD (n=12)): 0 n (%) | TRAE Hypoaesthesia oral, any grade (450 mg QD (n=12)): 2 (16.7) n (%) | TRAE Hypoaesthesia oral, grade 3-4 (450 mg QD (n=12)): 0 n (%) | TRAE Hypocalcaemia, any grade (450 mg QD (n=12)): 0 n (%) | TRAE Hypocalcaemia, grade 3-4 (450 mg QD (n=12)): 0 n (%) | TRAE Hypotension, any grade (450 mg QD (n=12)): 0 n (%) | TRAE Hypotension, grade 3-4 (450 mg QD (n=12)): 0 n (%) | TRAE Insomnia, any grade (450 mg QD (n=12)): 0 n (%) | TRAE Insomnia, grade 3-4 (450 mg QD (n=12)): 0 n (%) | TRAE Leukopenia, any grade (450 mg QD (n=12)): 1 (8.3) n (%) | TRAE Leukopenia, grade 3-4 (450 mg QD (n=12)): 0 n (%) | TRAE Nausea, any grade (450 mg QD (n=12)): 0 n (%) | TRAE Nausea, grade 3-4 (450 mg QD (n=12)): 0 n (%) | TRAE Neuritis, any grade (450 mg QD (n=12)): 0 n (%) | TRAE Neuritis, grade 3-4 (450 mg QD (n=12)): 0 n (%) | TRAE Occult blood, any grade (450 mg QD (n=12)): 1 (8.3) n (%) | TRAE Occult blood, grade 3-4 (450 mg QD (n=12)): 0 n (%) | TRAE Oedema peripheral, any grade (450 mg QD (n=12)): 1 (8.3) n (%) | TRAE Oedema peripheral, grade 3-4 (450 mg QD (n=12)): 0 n (%) | TRAE Onycholysis, any grade (450 mg QD (n=12)): 1 (8.3) n (%) | TRAE Onycholysis, grade 3-4 (450 mg QD (n=12)): 0 n (%) | TRAE Oropharyngeal pain, any grade (450 mg QD (n=12)): 0 n (%) | TRAE Oropharyngeal pain, grade 3-4 (450 mg QD (n=12)): 0 n (%) | TRAE PPE, any grade (450 mg QD (n=12)): 3 (25.0) n (%) | TRAE PPE, grade 3-4 (450 mg QD (n=12)): 1 (8.3) n (%) | TRAE Paraesthesia, any grade (450 mg QD (n=12)): 1 (8.3) n (%) | TRAE Paraesthesia, grade 3-4 (450 mg QD (n=12)): 0 n (%) | TRAE Proteinuria, any grade (450 mg QD (n=12)): 3 (25.0) n (%) | TRAE Proteinuria, grade 3-4 (450 mg QD (n=12)): 1 (8.3) n (%) | TRAE Pruritus, any grade (450 mg QD (n=12)): 1 (8.3) n (%) | TRAE Pruritus, grade 3-4 (450 mg QD (n=12)): 0 n (%) | TRAE Rash maculo-papular, any grade (450 mg QD (n=12)): 0 n (%) | TRAE Rash maculo-papular, grade 3-4 (450 mg QD (n=12)): 0 n (%) | TRAE Sinus tachycardia, any grade (450 mg QD (n=12)): 0 n (%) | TRAE Sinus tachycardia, grade 3-4 (450 mg QD (n=12)): 0 n (%) | TRAE Skin fissures, any grade (450 mg QD (n=12)): 0 n (%) | TRAE Skin fissures, grade 3-4 (450 mg QD (n=12)): 0 n (%) | TRAE Supraventricular extrasystoles, any grade (450 mg QD (n=12)): 0 n (%) | TRAE Supraventricular extrasystoles, grade 3-4 (450 mg QD (n=12)): 0 n (%) | TRAE Thrombocytopenia, any grade (450 mg QD (n=12)): 0 n (%) | TRAE Thrombocytopenia, grade 3-4 (450 mg QD (n=12)): 0 n (%) | TRAE Upper respiratory tract infection, any grade (450 mg QD (n=12)): 0 n (%) | TRAE Upper respiratory tract infection, grade 3-4 (450 mg QD (n=12)): 0 n (%) | TRAE Urinary retention, any grade (450 mg QD (n=12)): 0 n (%) | TRAE Urinary retention, grade 3-4 (450 mg QD (n=12)): 0 n (%) | TRAE Urinary tract infection, any grade (450 mg QD (n=12)): 1 (8.3) n (%) | TRAE Urinary tract infection, grade 3-4 (450 mg QD (n=12)): 0 n (%) | TRAE Ventricular arrhythmia, any grade (450 mg QD (n=12)): 1 (8.3) n (%) | TRAE Ventricular arrhythmia, grade 3-4 (450 mg QD (n=12)): 0 n (%) | TRAE Ventricular extrasystoles, any grade (450 mg QD (n=12)): 0 n (%) | TRAE Ventricular extrasystoles, grade 3-4 (450 mg QD (n=12)): 0 n (%) | TRAE Vomiting, any grade (450 mg QD (n=12)): 1 (8.3) n (%) | TRAE Vomiting, grade 3-4 (450 mg QD (n=12)): 0 n (%) | TRAE Weight loss, any grade (450 mg QD (n=12)): 0 n (%) | TRAE Weight loss, grade 3-4 (450 mg QD (n=12)): 0 n (%) | patients with TEAE of pulmonary infection leading to death, deemed unrelated (450 mg QD cohort): One | TRAE Accessory nerve disorder, any grade (600 mg QD (n=10)): 0 n (%) | TRAE Accessory nerve disorder, grade 3-4 (600 mg QD (n=10)): 0 n (%) | TRAE Activated partial thromboplastin time prolonged, any grade (600 mg QD (n=10)): 0 n (%) | TRAE Activated partial thromboplastin time prolonged, grade 3-4 (600 mg QD (n=10)): 0 n (%) | TRAE Anaemia, any grade (600 mg QD (n=10)): 1 (10.0) n (%) | TRAE Anaemia, grade 3-4 (600 mg QD (n=10)): 0 n (%) | TRAE Anaesthesia oral, any grade (600 mg QD (n=10)): 1 (10.0) n (%) | TRAE Anaesthesia oral, grade 3-4 (600 mg QD (n=10)): 0 n (%) | TRAE Arrhythmia, any grade (600 mg QD (n=10)): 1 (10.0) n (%) | TRAE Arrhythmia, grade 3-4 (600 mg QD (n=10)): 0 n (%) | TRAE Arthralgia, any grade (600 mg QD (n=10)): 0 n (%) | TRAE Arthralgia, grade 3-4 (600 mg QD (n=10)): 0 n (%) | TRAE Asthenia, any grade (600 mg QD (n=10)): 3 (30.0) n (%) | TRAE Asthenia, grade 3-4 (600 mg QD (n=10)): 1 (10.0) n (%) | TRAE Blister, any grade (600 mg QD (n=10)): 0 n (%) | TRAE Blister, grade 3-4 (600 mg QD (n=10)): 0 n (%) | TRAE Chest discomfort, any grade (600 mg QD (n=10)): 0 n (%) | TRAE Chest discomfort, grade 3-4 (600 mg QD (n=10)): 0 n (%) | TRAE Chronic kidney disease, any grade (600 mg QD (n=10)): 0 n (%) | TRAE Chronic kidney disease, grade 3-4 (600 mg QD (n=10)): 0 n (%) | TRAE Constipation, any grade (600 mg QD (n=10)): 1 (10.0) n (%) | TRAE Constipation, grade 3-4 (600 mg QD (n=10)): 0 n (%) | TRAE Cough, any grade (600 mg QD (n=10)): 1 (10.0) n (%) | TRAE Cough, grade 3-4 (600 mg QD (n=10)): 0 n (%)
